The values below come from patent US20100143995A1, “Process for Fermentive Preparation of Alcohols and Recovery of Product” (E. I. DU PONT DE NEMOURS AND COMPANY, priority 2008, published 2010).

The nature of data set [1]: Extraction of ethanol from an aqueous solution by ionic liquid (HPLC). The settings on record: ethanol in aqueous solution after mixing 3 mL of about 31 g/L ethanol with 150 microliters (5 vol %) ionic liquid, overnight equilibration, control 655. It counts as physicochemical.
Protocol: (§1) Ethanol and isobutanol concentration in the solution was measured using HPLC as described above following thorough mixing and overnight equilibration of the contents of the vial.
The subject of data set [2] is Saccharomyces cerevisiae (W1362 20A). The data set can be described thus: Glucose Uptake Index of Saccharomyces cerevisiae culture in YPD medium with ionic liquid added. The conditions noted are these: 5% (v/v) ionic liquid added after 4 h, further 16 h at 30° C., GUI of control without ionic liquid 79.0 (Ex. 1-5) or 100 (Ex. 6-8).
The nature of data set [3]: Extraction of isobutanol from an aqueous solution by ionic liquid (HPLC). The settings on record: isobutanol in aqueous solution after mixing 3 mL of about 31 g/L isobutanol with 150 microliters (5 vol %) ionic liquid, overnight equilibration, control 436. It counts as physicochemical.
Protocol: as §1

Turning to “1-Butyl-3-methylimidazolium levulinate [Example 5]”, the “mM Ethanol” value in data set [1] came to 596 mM.
`CCOCC[N+](C)(C)CCN1C(=O)CCC1C` (centres unmarked) [Example 2, 1-(N,N,N-dimethyl(ethylethoxy)aminoethyl)-5-methyl-pyrrolidine-2-one hexafluoropropanesulfonate]: the “GUI of Sample (Glucose Utilization Index in the presence of 5% (v/v) of the ionic liquid phase)” value in data set [2] stood at 34.0. For the same compound, the “mM Ethanol” value in data set [1] (listed as [MeDMEEAP] [HFPS]) is reported as 656 mM. In data set [3] (listed as [MeDMEEAP] [HFPS]), this compound yielded a mM isobutanol of 422 mM.
Regarding `CCOCC[N+](C)(C)CCN1C(=O)CCC1C` (centres unmarked) [Example 3, 1-(N,N,N-dimethyl(ethylethoxy)aminoethyl)-5-methyl-pyrrolidine-2-one bis(trifluoromethane)sulfonamide], the “GUI of Sample (Glucose Utilization Index in the presence of 5% (v/v) of the ionic liquid phase)” value in data set [2] was 80.4. Further, in data set [1] (listed as [MeDMEEAP] [Tf2N]), the “mM Ethanol” value worked out at 637 mM. This compound yielded a mM isobutanol in data set [3] (listed as [MeDMEEAP] [Tf2N]) of 398 mM.
With `COCC[N+](C)(C)CCN1C(=O)CCC1C` (centres unmarked) [Example 4, 1-(N,N,N-dimethyl(methylethoxy)aminoethyl)-5-methylpyrrolidin-2-one hexafluoropropanesulfonate], the “GUI of Sample (Glucose Utilization Index in the presence of 5% (v/v) of the ionic liquid phase)” value in data set [2] was 21.9. Moreover, the “mM Ethanol” value in data set [1] was 645 mM. This compound also yielded a mM isobutanol in data set [3] of 423 mM.
For `CCC[N+](C)(C)CCN1C(=O)CCC1C.O=S(=O)([N-]S(=O)(=O)C(F)(F)F)C(F)(F)F` (centres unmarked) [Example 6, 1-(N,N,N-dimethylpropylaminoethyl)-5-methylpyrrolidone-2-one bis(trifluoromethane)sulfonamide], in data set [2], the “GUI of Sample (Glucose Utilization Index in the presence of 5% (v/v) of the ionic liquid phase)” value stood at 100. For the same compound, the mM isobutanol in data set [3] is on record as 387 mM.
`COCC[N+](C)(C)CCN1C(=O)CCC1C.O=S(=O)([N-]S(=O)(=O)C(F)(F)F)C(F)(F)F` (centres unmarked) [Example 7, 1-(N,N,N-dimethyl(methylethoxy)aminoethyl)-5-methylpyrrolidone-2-one bis(trifluoromethane)sulfonamide]: in data set [2], the “GUI of Sample (Glucose Utilization Index in the presence of 5% (v/v) of the ionic liquid phase)” value was 100. Further, the “mM Ethanol” value in data set [1] is 643 mM. The same compound showed a mM isobutanol in data set [3] of 389 mM.
Regarding `CC1CCC(=O)N1CC[N+](C)(C)CCO.O=S(=O)([N-]S(=O)(=O)C(F)(F)F)C(F)(F)F` (centres unmarked) [Example 8, 1-(N,N,N-dimethyl(hydroxyethyl)aminoethyl)-5-methylpyrrolidone-2-one bis(trifluoromethane)sulfonamide], in data set [2], the “GUI of Sample (Glucose Utilization Index in the presence of 5% (v/v) of the ionic liquid phase)” value is 89.3. Further, in data set [3], the mM isobutanol is 417 mM.
